SMILES strings stand for the structures.

The values that follow come from patent US20260132374A1, “Compositions and Methods for Efficient Amplification of Retinal Progenitors Cells” (SORBONNE UNIVERSITE, priority 2018, published 2026).

The subject of the experiment is hiRPCp2. The experiment can be described thus: Differentiation ability of hiRPCp2 expanded in K+ medium (qRT-PCR of CRX and BRN3A). The format is cell-based, human. The following applies: Diff-2, late forced differentiation in ProB27 medium supplemented by DAPT, D10, qRT-PCR of CRX. The procedure:
Total RNAs were extracted using Nucleospin RNA II kit (Macherey-Nagel) according to the manufacturer's protocol, and RNA yields and quality were checked with a NanoDrop spectrophotometer (Thermo Fisher Scientific). cDNA were synthesized from 250 ng of mRNA using the QuantiTect reverse transcription kit (Qiagen) following manufacturer's recommendations. Synthesized cDNA were then diluted at 1/20 in DNase-free water before performing quantitative PCR. qPCR analysis was performed on an Applied Biosystems real-time PCR machine (7500 Fast System) with custom TaqMan® Array 96-Well Fast plates and TaqMan® Gene expression Master Mix (Thermo Fisher Scientific) following manufacturer's instructions. All primers and MGB probes labeled with FAM for amplification were purchased from Thermo Fischer Scientific as described in Reichman et al., 2017 [2], ASCL1 (Assay ID Hs04187546_g1). Results were normalized against 18S and quantification of gene expression was based on the DeltaCt Method.
We tested the ability of the hiRPCs expanded after two passages (hiRPCp2) in K+ medium to be differentiated in retinal neurons. Three different culture conditions were tested: 1—By a spontaneous differentiation in ProB27 medium, a control condition. 2—By an “early forced” differentiation using ProB27 medium supplemented by DAPT, a Notch pathway inhibitor, directly after K+ medium condition at D3 (Diff 1). […]
On the technique in general: Real-time PCR tracks product formation cycle by cycle.

In the case of `C[C@H](NC(=O)Cc1cc(F)cc(F)c1)C(=O)N[C@H](C(=O)OC(C)(C)C)c1ccccc1` [DAPT], the “differentiation of hiRPCp2” value is reported as “favors the hiRPCs differentiation in photoreceptor precursors”.
